Values joined by “and” are separate entries in the source; they are usually repeats but may differ in a detail not shown here. Equal entries are not always repeated.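 How tested: cells in 96-well plates exposed to compound for 48 hours at five concentrations. The concentration for 50% growth inhibition is given as GI50. TGI is the concentration that stops growth completely.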
Test system: MDA-MB-468 breast
Experiment: NCI tumour cell line growth inhibition, 48 h

SMILES | GI50 | TGI
Cc1ccc(OCCOCCOCCOCCOc2ccc(C)n(O)c2=S)c(=S)n1O | < 17.4 nM | 5330 nM
N#CCCN1C/C(=C/c2ccc(Br)cc2)C(=O)/C(=C/c2ccc(Br)cc2)C1 | 1500 nM | 3620 nM
CN(C)C(=S)SSC(=S)N(C)C | 17100 nM | 37500 nM
Cc1cn(-c2cc(C(=O)Nc3cccc(-n4ccc5c(NC(=O)c6ccccc6)nccc54)c3)cc(C(F)(F)F)c2)cn1 | 229 nM | 1040 nM
COc1ccc(-c2ccc3c(N4CCOC[C@@H]4C)nc(N4CCOC[C@@H]4C)nc3n2)cc1CO | 5.33 nM and 18 nM | 19.9 nM and 195 nM
N=C(N)c1ccc(-c2ccc(-c3cccs3)s2)cc1 | 56.4 nM | 1150 nM
Nc1cc(Br)c(-c2nnc(CCC(=O)c3nc4ccccc4[nH]3)o2)c(Br)c1 | 1930 nM | 6970 nM
O=C1Nc2ccccc2/C1=C1\CCc2cc(O)ccc21 | 3330 nM | > 21800 nM
CO[C@H]1Nc2c(ccc(C)c2O)C(=O)N2C=C(/C=C/C(N)=O)C[C@@H]12 | 20.8 nM | 46.5 nM
C#CCOc1cccc(Nc2ncnc3c(NC(=O)C=C)cccc23)c1 | 4910 nM | 25400 nM
CC(C)[C@H](O)C(=O)N[C@@H](C)C(=O)N[C@@H]1C(=O)N(C)CCc2ccccc21 | > 100000 nM | > 100000 nM
CCN(CC)CCCCCCNc1cccc2cc(Br)cnc12 | 1960 nM | 4460 nM
c1ccc2c(c1)[nH]c1c2cc[n+]2cc3c(cc12)CCCC3 | 1120 nM | 2980 nM
COc1ccc(-c2nn(-c3cccc(Cl)c3)cc2-c2cc(-c3ccccc3)[nH]c(=O)c2C#N)cc1 | 1550 nM | 7510 nM
CC(C)(C)[Si](C)(C)OC1[C@@H](CNC(=O)NC(=O)CCl)O[C@@H](n2cnc3c(N)ncnc32)[C@H]1O[Si](C)(C)C(C)(C)C (some centres undefined) | 802 nM | 1710 nM
COc1ccc(-c2cnnn2-c2nonc2-n2cccc2)cc1 | 130 nM | 721 nM
Nc1cc2c(cc1Br)[nH]c(=O)c1ccccc12 | 1210 nM | 5410 nM
COc1cc(/C=C\c2cc(OC)c(OC)c(OC)c2)cc(N/C=C\C(=O)c2c[nH]c3ccccc23)c1OC | 1280 nM | 3660 nM
OC(c1cc(-c2ccc(C(F)(F)F)cc2)nc(C(F)(F)F)c1)C1CCCCN1 (centres undefined) | 1610 nM and 1500 nM | 3330 nM and 2830 nM
CC1(C)CN=C(NN=C(/C=C/c2ccc(C(F)(F)F)cc2)/C=C/c2ccc(C(F)(F)F)cc2)NC1 | 1280 nM | 2720 nM
Cc1cc(N/N=C/c2ccccn2)nc2ccccc12 | 252 nM | 2600 nM
NNCCc1ccc(NC(=O)CCCc2ccc(C(=O)Nc3ccccc3N)cc2)cc1 | 10900 nM | 40100 nM

Reference: PubChem BioAssay (NCI)
